The target in test [1] is IRAK4 enzyme (Homo sapiens (Human), UniProt Q9NWZ3). The test can be described thus: biochemical. In kind it is biochemical. As to conditions: IRAK4 enzyme, TR-FRET, 500 μM ATP. In general terms: In TR-FRET formats the signal depends on donor and acceptor labels being close together.
Test [2] deals with TNFα. As to the kind of experiment: cells. In kind it is cell-based, human. As to conditions: Homo sapiens, Monocyte, LPS-stimulated human monocytes, TNFα content; read-out: EC50 TNF.

Here are results for 25 molecules from patent US10336762B2 (priority 2017, dated 2019).

Broadly, the IC50 is the concentration that gives 50% inhibition. The low end stands for greater potency in that assay, the high end for weaker potency in that assay. Usually EC50 stands for the concentration at which the effect is half-maximal.

IRAK4 enzyme, sequence (Q9NWZ3 whole entry): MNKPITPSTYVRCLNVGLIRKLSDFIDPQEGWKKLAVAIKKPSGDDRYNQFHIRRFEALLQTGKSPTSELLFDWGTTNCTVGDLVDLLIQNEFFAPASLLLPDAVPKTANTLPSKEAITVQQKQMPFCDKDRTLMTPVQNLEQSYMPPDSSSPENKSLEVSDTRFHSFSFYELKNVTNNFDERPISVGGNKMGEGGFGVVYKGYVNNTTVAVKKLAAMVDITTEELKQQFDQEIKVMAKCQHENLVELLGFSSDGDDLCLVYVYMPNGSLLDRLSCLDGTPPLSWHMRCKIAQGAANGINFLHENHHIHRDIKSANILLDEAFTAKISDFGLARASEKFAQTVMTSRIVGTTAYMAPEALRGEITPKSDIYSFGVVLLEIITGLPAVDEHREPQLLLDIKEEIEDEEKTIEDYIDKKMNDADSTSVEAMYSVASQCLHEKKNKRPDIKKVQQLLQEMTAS

For the molecule `CC(C)(O)[C@H](F)CNC(=O)c1cnc(-c2ccc3cc(C#N)cnn23)cc1Nc1ccc(-c2nc[nH]n2)cc1` [Example 175, (R)-4-((4-(1H-1,2,4-triazol-3-yl)phenyl)amino)-6-(3-cyanopyrrolo[1,2-b]pyridazin-7-yl)-N-(2-fluoro-3-hydroxy-3-methylbutyl)nicotinamide], the IC50 in test [1] is less than 1 nM. Besides, the EC50 in test [2] came to 20 nM.

For `CC(C)(O)[C@H](F)CNC(=O)c1cnc(-c2ccc3cc(C#N)cnn23)cc1Nc1ccc(-n2ncnn2)cc1` [Example 176, (R)-4-((4-(2H-tetrazol-2-yl)phenyl)amino)-6-(3-cyanopyrrolo[1,2-b]pyridazin-7-yl)-N-(2-fluoro-3-hydroxy-3-methylbutyl)nicotinamide], the IC50 in test [1] came to 1 nM. Moreover, in test [2], the EC50 is greater than 10000 nM.

The molecule `CC(C)(O)[C@H](F)CNC(=O)c1cnc(-c2ccc3cc(C#N)cnn23)cc1Nc1ccc(-c2cc[nH]n2)cc1` [Example 177, (R)-4-((4-(1H-pyrazol-3-yl)phenyl)amino)-6-(3-cyanopyrrolo[1,2-b]pyridazin-7-yl)-N-(2-fluoro-3-hydroxy-3-methylbutyl)nicotinamide] gave a half-maximal inhibitory concentration (IC50) in test [1] of less than 1 nM. In addition, the EC50 in test [2] amounted to 29 nM.

In test [1], `CC(C)(O)[C@H](F)CNC(=O)c1cnc(-c2ccc3cc(C#N)cnn23)cc1Nc1ccc(-c2cn[nH]c2)cc1` [Example 178, (R)-4-((4-(1H-pyrazol-4-yl)phenyl)amino)-6-(3-cyanopyrrolo[1,2-b]pyridazin-7-yl)-N-(2-fluoro-3-hydroxy-3-methylbutyl)nicotinamide] came in with an IC50 of less than 1 nM. Besides, in test [2], the EC50 amounted to 10 nM.

The molecule `Cn1cnc(-c2ccc(Nc3cc(-c4ccc5cc(C#N)cnn45)ncc3C(=O)NC[C@@H](F)C(C)(C)O)cc2)n1` [Example 179, (R)-6-(3-cyanopyrrolo[1,2-b]pyridazin-7-yl)-N-(2-fluoro-3-hydroxy-3-methylbutyl)-4-((4-(1-methyl-1H-1,2,4-triazol-3-yl)phenyl)amino) nicotinamide] had an IC50 in test [1] of 1 nM. Besides, the EC50 in test [2] is 59 nM.

`CC(C)(O)[C@H](F)CNC(=O)c1cnc(-c2ccc3cc(C#N)cnn23)cc1Nc1ccc(-n2ccnn2)cc1` [Example 180, (R)-4-((4-(1H-1,2,3-triazol-1-yl)phenyl)amino)-6-(3-cyanopyrrolo[1,2-b]pyridazin-7-yl)-N-(2-fluoro-3-hydroxy-3-methylbutyl)nicotinamide] registered an IC50 in test [1] of less than 1 nM. In addition, the EC50 in test [2] was 34 nM.

In test [1], `CC(C)(O)[C@H](F)CNC(=O)c1cnc(-c2ccc3cc(C#N)cnn23)cc1NCc1cn[nH]c1` [Example 181, (R)-4-(((1H-pyrazol-4-yl)methyl)amino)-6-(3-cyanopyrrolo[1,2-b]pyridazin-7-yl)-N-(2-fluoro-3-hydroxy-3-methylbutyl)nicotinamide] displayed an IC50 of 1000 nM. Moreover, the EC50 in test [2] is greater than 10000 nM.

Consider `CNC(=O)C1CCC(Nc2cc(-c3ccc4cc(C#N)cnn34)ncc2C(=O)NC[C@@H](F)C(C)(C)O)CC1` (stereo partly drawn) [Example 182, 6-(3-cyanopyrrolo[1,2-b]pyridazin-7-yl)-N-((R)-2-fluoro-3-hydroxy-3-methylbutyl)-4-(((1r,4R)-4-(methylcarbamoyl)cyclohexyl)amino) nicotinamide], for which half-maximal inhibition in test [1] (IC50) was put at 1 nM. In addition, the EC50 in test [2] was 70 nM.

The molecule `CC(C)(O)[C@H](F)CNC(=O)c1cnc(-c2ccc3cc(C#N)cnn23)cc1Nc1ccnnc1` [Example 183, (R)-6-(3-cyanopyrrolo[1,2-b]pyridazin-7-yl)-N-(2-fluoro-3-hydroxy-3-methylbutyl)-4-(pyridazin-4-ylamino)nicotinamide] returned an IC50 in test [1] of 6 nM. Also, in test [2], the EC50 turned out to be 657 nM.

`Cc1ccc(Nc2cc(-c3ccc4cc(C#N)cnn34)ncc2C(=O)NC[C@@H](F)C(C)(C)O)cn1` [Example 184, (R)-6-(3-cyanopyrrolo[1,2-b]pyridazin-7-yl)-N-(2-fluoro-3-hydroxy-3-methylbutyl)-4-((6-methylpyridin-3-yl)amino)nicotinamide] yielded an IC50 in test [1] of less than 1 nM. For the same molecule, the EC50 in test [2] is 48 nM.

Molecule `CC(C)(O)[C@H](F)CNC(=O)c1cnc(-c2ccc3cc(C#N)cnn23)cc1Nc1cnccn1` [Example 185, (R)-6-(3-cyanopyrrolo[1,2-b]pyridazin-7-yl)-N-(2-fluoro-3-hydroxy-3-methylbutyl)-4-(pyrazin-2-ylamino)nicotinamide] registered an IC50 in test [1] of less than 1 nM. The EC50 in test [2] was 46 nM.

As to `CC(C)(O)[C@H](F)CNC(=O)c1cnc(-c2ccc3cc(C#N)cnn23)cc1Nc1ccc(C(F)(F)F)nc1` [Example 186, (R)-6-(3-cyanopyrrolo[1,2-b]pyridazin-7-yl)-N-(2-fluoro-3-hydroxy-3-methylbutyl)-4-((6-(trifluoromethyl)pyridin-3-yl)amino)nicotinamide], the IC50 in test [1] stood at 1 nM. Moreover, the EC50 in test [2] came out at 145 nM.

For the molecule `Cc1cc(Nc2cc(-c3ccc4cc(C#N)cnn34)ncc2C(=O)NC[C@@H](F)C(C)(C)O)cnc1F` [Example 187, (R)-6-(3-cyanopyrrolo[1,2-b]pyridazin-7-yl)-N-(2-fluoro-3-hydroxy-3-methylbutyl)-4-((6-fluoro-5-methylpyridin-3-yl)amino) nicotinamide], in test [1], the IC50 was determined as 1 nM. The EC50 in test [2] turned out to be 152 nM.

For the molecule `CC(C)Nc1cc(-c2ccc3cc(C#N)cnn23)ncc1C(=O)N[C@@H]1CC[C@@H](O)C1` [Example 188, 6-(3-cyanopyrrolo[1,2-b]pyridazin-7-yl)-N-((1R,3R)-3-hydroxycyclopentyl)-4-(isopropylamino) nicotinamide], in test [1], half-maximal inhibition (IC50) required 8 nM. In test [2], the EC50 is 275 nM.

The molecule `CC(C)Nc1cc(-c2ccc3cc(C#N)cnn23)ncc1C(=O)N[C@H]1CC[C@H](O)C1` [Example 189, 6-(3-cyanopyrrolo[1,2-b]pyridazin-7-yl)-N-((1S,3S)-3-hydroxycyclopentyl)-4-(isopropylamino) nicotinamide] returned an IC50 in test [1] of 6 nM. Further, in test [2], the EC50 was determined as 136 nM.

As to `CC(C)Nc1cc(-c2ccc3cc(C#N)cnn23)ncc1C(=O)N[C@H]1CCC[C@@H](O)C1` [Example 190, 6-(3-cyanopyrrolo[1,2-b]pyridazin-7-yl)-N-((1S,3R)-3-hydroxycyclohexyl)-4-(isopropylamino) nicotinamide], the IC50 in test [1] came to 8 nM. In test [2], the EC50 was 209 nM.

`CC(C)Nc1cc(-c2ccc3cc(C#N)cnn23)ncc1C(=O)N[C@H]1CCC[C@H](O)C1` [Example 191, 6-(3-cyanopyrrolo[1,2-b]pyridazin-7-yl)-N-((1S,3S)-3-hydroxycyclohexyl)-4-(isopropylamino) nicotinamide]: the IC50 in test [1] was 4 nM. Besides, in test [2], the EC50 came to 128 nM.

In the case of `CC(C)Nc1cc(-c2ccc3cc(C#N)cnn23)ncc1C(=O)N[C@@H]1CCC[C@@H](O)C1` [Example 192, 6-(3-cyanopyrrolo[1,2-b]pyridazin-7-yl)-N-((1R,3R)-3-hydroxycyclohexyl)-4-(isopropylamino) nicotinamide], in test [1], the IC50 amounted to 5 nM. The EC50 in test [2] is 157 nM.

As for `CC(C)Nc1cc(-c2ccc3cc(C#N)cnn23)ncc1C(=O)N[C@@H]1CCC[C@H](O)C1` [Example 193, 6-(3-cyanopyrrolo[1,2-b]pyridazin-7-yl)-N-((1R,3S)-3-hydroxycyclohexyl)-4-(isopropylamino) nicotinamide], the IC50 in test [1] stood at 3 nM. Also, the EC50 in test [2] came to 141 nM.

Turning to `CC(C)(O)[C@H](F)CNC(=O)c1cnc(-c2ccc3cc(C#N)cnn23)cc1N[C@@H]1CCOC1` [Example 194, 6-(3-cyanopyrrolo[1,2-b]pyridazin-7-yl)-N-((R)-2-fluoro-3-hydroxy-3-methylbutyl)-4-(((R)-tetrahydrofuran-3-yl)amino)nicotinamide], the IC50 in test [1] was less than 1 nM. Also, the EC50 in test [2] was found to be 48 nM.

In turn, `CC(C)(O)[C@H](F)CNC(=O)c1cnc(-c2ccc3cc(C#N)cnn23)cc1N[C@H]1CCOC1` [Example 195, 6-(3-cyanopyrrolo[1,2-b]pyridazin-7-yl)-N-((R)-2-fluoro-3-hydroxy-3-methylbutyl)-4-(((S)-tetrahydrofuran-3-yl)amino)nicotinamide] showed an IC50 in test [1] of less than 1 nM. Further, the EC50 in test [2] is 37 nM.

Take `COC(=O)N1Cc2ccc(Nc3cc(-c4ccc5cc(C#N)cnn45)ncc3C(=O)NC[C@@H](F)C(C)(C)O)cc2C1` [Example 196, (R)-methyl 5-((2-(3-cyanopyrrolo[1,2-b]pyridazin-7-yl)-5-((2-fluoro-3-hydroxy-3-methylbutyl)carbamoyl)pyridin-4-yl)amino)isoindoline-2-carboxylate]: the IC50 in test [1] was 2 nM. The EC50 in test [2] turned out to be 53 nM.

Take `CC(=O)N1Cc2ccc(Nc3cc(-c4ccc5cc(C#N)cnn45)ncc3C(=O)NC[C@@H](F)C(C)(C)O)cc2C1` [Example 197, (R)-4-((2-acetylisoindolin-5-yl)amino)-6-(3-cyanopyrrolo[1,2-b]pyridazin-7-yl)-N-(2-fluoro-3-hydroxy-3-methylbutyl)nicotinamide]: in test [1], the IC50 amounted to 1 nM. The EC50 in test [2] stood at 42 nM.

Turning to `CC(C)(O)[C@H](F)CNC(=O)c1cnc(-c2ccc3cc(C#N)cnn23)cc1Nc1ccc(CNCC(F)(F)F)cc1` [Example 198, (R)-6-(3-cyanopyrrolo[1,2-b]pyridazin-7-yl)-N-(2-fluoro-3-hydroxy-3-methylbutyl)-4-((4-(((2,2,2-trifluoroethyl)amino)methyl)phenyl)amino)nicotinamide], in test [1], the IC50 was less than 1 nM. Further, the half-maximal effective concentration (EC50) in test [2] was 16 nM.

In test [1], `CC(C)(O)[C@H](F)CNC(=O)c1cnc(-c2ccc3cc(C#N)cnn23)cc1Nc1cnn([C@H]2CCN(C3COC3)C2)c1` [Example 199, 6-(3-cyanopyrrolo[1,2-b]pyridazin-7-yl)-N-((R)-2-fluoro-3-hydroxy-3-methylbutyl)-4-((1-((S)-1-(oxetan-3-yl)pyrrolidin-3-yl)-1H-pyrazol-4-yl)amino)nicotinamide] displayed an IC50 of less than 1 nM. For the same molecule, the EC50 in test [2] stood at 82 nM.
